Test results as given in ChEMBL document CHEMBL1145739, “N-(3-phenylsulfonyl-3-piperidinoyl)-phenylalanine derivatives as potent, selective VLA-4 antagonists” (Bioorg Med Chem Lett, 2003).

What was measured:
Integrin alpha-4/beta-1 = Integrin alpha-4/beta-1 (Homo sapiens, UniProt P05556+P13612); assay: Binding affinity towards VLA-4 (alpha4 beta-1) receptor in human Jurkat cells using [125I]VCAM-Ig as radioligand; type: cell-based
[1] = molecular target: Integrin alpha-4/beta-7 (Homo sapiens) (UniProt P13612+P26010); assay: Percent inhibition of [125I]VCAM-Ig binding to human integrin alpha4-beta7 receptor of RPMI-8866 cells at 100 nM; type: cell-based
Integrin alpha-4/beta-7 = molecular target: T1, Integrin alpha-4/beta-7 (Homo sapiens, UniProt P13612+P26010); assay: Binding affinity towards […] receptor in human RPMI-8866 B-cell line using [125I]MAdCAM-Ig as radioligand
T1 sequence (P13612 whole entry): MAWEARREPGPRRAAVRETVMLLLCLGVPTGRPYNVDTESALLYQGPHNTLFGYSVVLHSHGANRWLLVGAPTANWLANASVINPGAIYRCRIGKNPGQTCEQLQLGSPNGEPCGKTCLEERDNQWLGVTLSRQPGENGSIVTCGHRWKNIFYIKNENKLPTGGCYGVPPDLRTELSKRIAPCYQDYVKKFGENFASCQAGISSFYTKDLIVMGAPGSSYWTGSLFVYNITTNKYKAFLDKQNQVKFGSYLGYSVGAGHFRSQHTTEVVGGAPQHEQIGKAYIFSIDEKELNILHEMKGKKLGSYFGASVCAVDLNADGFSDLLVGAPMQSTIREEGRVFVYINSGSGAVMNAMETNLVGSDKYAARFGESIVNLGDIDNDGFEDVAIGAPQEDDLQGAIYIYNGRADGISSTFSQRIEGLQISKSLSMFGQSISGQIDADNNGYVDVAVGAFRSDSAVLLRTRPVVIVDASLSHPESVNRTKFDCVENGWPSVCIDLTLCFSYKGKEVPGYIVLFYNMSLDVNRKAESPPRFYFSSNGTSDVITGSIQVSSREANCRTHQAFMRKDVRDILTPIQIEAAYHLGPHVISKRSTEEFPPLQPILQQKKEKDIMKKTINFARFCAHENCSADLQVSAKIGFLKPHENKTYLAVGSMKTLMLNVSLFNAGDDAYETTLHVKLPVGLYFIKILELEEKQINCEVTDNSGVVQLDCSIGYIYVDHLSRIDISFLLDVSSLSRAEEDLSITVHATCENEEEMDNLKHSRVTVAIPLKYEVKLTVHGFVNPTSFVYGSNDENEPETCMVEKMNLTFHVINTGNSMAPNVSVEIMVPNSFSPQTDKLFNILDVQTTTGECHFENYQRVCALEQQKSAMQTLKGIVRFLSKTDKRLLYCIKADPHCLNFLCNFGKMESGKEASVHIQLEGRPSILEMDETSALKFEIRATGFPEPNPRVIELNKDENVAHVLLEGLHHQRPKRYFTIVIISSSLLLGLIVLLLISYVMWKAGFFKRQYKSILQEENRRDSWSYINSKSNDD
T1 sequence (P26010 whole entry): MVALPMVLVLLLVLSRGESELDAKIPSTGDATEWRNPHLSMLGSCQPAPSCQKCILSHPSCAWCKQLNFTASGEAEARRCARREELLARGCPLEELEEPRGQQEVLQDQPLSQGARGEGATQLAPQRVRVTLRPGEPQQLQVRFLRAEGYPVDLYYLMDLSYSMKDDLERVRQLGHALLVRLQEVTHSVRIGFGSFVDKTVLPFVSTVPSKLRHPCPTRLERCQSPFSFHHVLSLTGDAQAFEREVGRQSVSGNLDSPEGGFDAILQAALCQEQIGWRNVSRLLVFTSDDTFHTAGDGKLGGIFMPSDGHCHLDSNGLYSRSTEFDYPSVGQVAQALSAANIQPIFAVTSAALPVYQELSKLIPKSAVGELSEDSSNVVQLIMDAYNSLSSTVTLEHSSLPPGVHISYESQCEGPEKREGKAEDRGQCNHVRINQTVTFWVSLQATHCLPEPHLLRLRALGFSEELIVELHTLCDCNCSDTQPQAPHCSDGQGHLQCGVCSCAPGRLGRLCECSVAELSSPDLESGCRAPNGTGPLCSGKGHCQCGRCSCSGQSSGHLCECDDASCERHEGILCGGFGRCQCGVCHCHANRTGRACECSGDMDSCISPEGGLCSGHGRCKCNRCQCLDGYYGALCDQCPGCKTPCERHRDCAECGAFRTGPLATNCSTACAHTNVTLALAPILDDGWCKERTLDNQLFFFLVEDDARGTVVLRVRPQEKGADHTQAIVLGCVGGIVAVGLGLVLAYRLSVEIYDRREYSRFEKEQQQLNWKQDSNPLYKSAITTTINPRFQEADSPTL

Chain of Integrin alpha-4/beta-1 (P05556 whole entry, one chain of several): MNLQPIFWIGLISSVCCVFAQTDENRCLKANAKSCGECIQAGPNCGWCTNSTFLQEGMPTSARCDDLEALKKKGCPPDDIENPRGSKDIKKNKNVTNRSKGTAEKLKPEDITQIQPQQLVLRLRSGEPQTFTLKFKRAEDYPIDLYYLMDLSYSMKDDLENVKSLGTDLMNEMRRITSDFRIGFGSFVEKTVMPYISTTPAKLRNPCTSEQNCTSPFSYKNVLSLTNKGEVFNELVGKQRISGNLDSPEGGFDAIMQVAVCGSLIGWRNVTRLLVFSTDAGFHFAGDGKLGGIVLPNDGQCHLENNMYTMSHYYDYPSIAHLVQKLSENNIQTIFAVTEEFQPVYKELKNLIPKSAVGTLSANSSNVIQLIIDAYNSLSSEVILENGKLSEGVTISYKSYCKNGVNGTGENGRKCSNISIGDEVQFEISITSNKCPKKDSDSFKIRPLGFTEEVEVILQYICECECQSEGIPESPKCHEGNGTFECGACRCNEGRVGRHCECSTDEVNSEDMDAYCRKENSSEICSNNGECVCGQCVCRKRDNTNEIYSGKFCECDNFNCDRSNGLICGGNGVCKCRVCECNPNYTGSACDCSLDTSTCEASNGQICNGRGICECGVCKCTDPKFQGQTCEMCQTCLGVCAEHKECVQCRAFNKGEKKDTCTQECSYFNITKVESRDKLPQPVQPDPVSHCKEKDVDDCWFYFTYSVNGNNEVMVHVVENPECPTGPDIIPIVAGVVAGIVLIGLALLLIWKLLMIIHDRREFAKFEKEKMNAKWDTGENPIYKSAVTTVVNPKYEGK

O=C(O)[C@H](Cc1ccc(-c2ccccc2)cc1)NC(=O)C1(S(=O)(=O)c2ccccc2Br)CCCC1
IC50 (Integrin alpha-4/beta-1): 0.105 µM
inhibition [1]: 8%

COc1ccccc1-c1ccc(C[C@H](NC(=O)C2(S(=O)(=O)c3ccccc3)CCC2)C(=O)O)cc1
IC50 (Integrin alpha-4/beta-1): 0.0012 µM
IC50 (Integrin alpha-4/beta-7): 0.016 µM

COc1cccc(OC)c1-c1ccc(C[C@H](NC(=O)C2(S(=O)(=O)c3ccccc3Br)CCCNC2)C(=O)O)cc1 (stereo not given in full)
IC50 (Integrin alpha-4/beta-1): 0.00015 µM
IC50 (Integrin alpha-4/beta-7): 0.096 µM

COc1cccc(OC)c1-c1ccc(C[C@H](NC(=O)C2(S(=O)(=O)c3ccccc3N3CCCC3)CCCNC2)C(=O)O)cc1 (stereo not given in full)
IC50 (Integrin alpha-4/beta-1): 0.00039 µM
IC50 (Integrin alpha-4/beta-7): 0.388 µM

CCN(CC)S(=O)(=O)C1(C(=O)N[C@@H](Cc2ccc(-c3ccccc3OC)cc2)C(=O)O)CCCC1
IC50 (Integrin alpha-4/beta-1): 0.00097 µM
IC50 (Integrin alpha-4/beta-7): 0.054 µM

COc1ccccc1-c1ccc(C[C@H](NC(=O)C2(S(=O)(=O)c3ccccc3)CCNCC2)C(=O)O)cc1
IC50 (Integrin alpha-4/beta-1): 0.02 µM
IC50 (Integrin alpha-4/beta-7): 1.9 µM

O=C(O)[C@H](Cc1ccc(-c2ccccc2)cc1)NC(=O)C1(S(=O)(=O)c2ccccc2)CCCC1
IC50 (Integrin alpha-4/beta-1): 0.028 µM
inhibition [1]: 18%

COc1cccc(OC)c1-c1ccc(C[C@H](NC(=O)C2(S(=O)(=O)c3ccccc3)CCOC2)C(=O)O)cc1 (stereo not given in full)
IC50 (Integrin alpha-4/beta-1): 0.0001 µM
IC50 (Integrin alpha-4/beta-7): 0.0052 µM

COc1cccc(OC)c1-c1ccc(C[C@H](NC(=O)C2(S(=O)(=O)c3ccccc3)CCN(C)CC2)C(=O)O)cc1
IC50 (Integrin alpha-4/beta-1): 0.0011 µM
IC50 (Integrin alpha-4/beta-7): 0.466 µM

COc1cccc(OC)c1-c1ccc(C[C@H](NC(=O)C2(S(=O)(=O)c3cncn3C)CCCNC2)C(=O)O)cc1 (stereo not given in full)
IC50 (Integrin alpha-4/beta-1): 0.00014 µM
IC50 (Integrin alpha-4/beta-7): 0.046 µM

O=C(O)[C@H](Cc1ccc(-c2ccccc2)cc1)NC(=O)C1(S(=O)(=O)c2ccc(Br)cc2)CCCC1
IC50 (Integrin alpha-4/beta-1): 0.023 µM
inhibition [1]: 20%

COc1cccc(OC)c1-c1ccc(C[C@H](NC(=O)C2(S(=O)(=O)CCNCCCN(C)C)CCCNC2)C(=O)O)cc1 (stereo not given in full)
IC50 (Integrin alpha-4/beta-1): 0.00037 µM
IC50 (Integrin alpha-4/beta-7): 0.179 µM

COc1cccc(OC)c1-c1ccc(C[C@H](NC(=O)C2(S(=O)(=O)c3ccccc3)CCCC2)C(=O)O)cc1
IC50 (Integrin alpha-4/beta-1): 0.00011 µM
IC50 (Integrin alpha-4/beta-7): 0.005 µM

COc1cccc(OC)c1-c1ccc(C[C@H](NC(=O)C2(S(=O)(=O)c3ccccc3)CCC2)C(=O)O)cc1
IC50 (Integrin alpha-4/beta-1): 0.00017 µM
IC50 (Integrin alpha-4/beta-7): 0.0032 µM

COc1ccccc1-c1ccc(C[C@H](NC(=O)C2(S(=O)(=O)c3ccc(F)cc3)CCCC2)C(=O)O)cc1
IC50 (Integrin alpha-4/beta-1): 0.00027 µM
IC50 (Integrin alpha-4/beta-7): 0.04 µM

O=C(O)[C@H](Cc1ccc(-c2ccccc2)cc1)NC(=O)C1(S(=O)(=O)c2ccccc2)Cc2ccccc2C1
IC50 (Integrin alpha-4/beta-1): 0.68 µM
IC50 (Integrin alpha-4/beta-7): 7.34 µM

COc1cccc(OC)c1-c1ccc(C[C@H](NC(=O)C2(S(=O)(=O)c3ccccc3)CCSCC2)C(=O)O)cc1
IC50 (Integrin alpha-4/beta-1): 0.00022 µM
IC50 (Integrin alpha-4/beta-7): 0.005 µM

COc1ccccc1-c1ccc(C[C@H](NC(=O)C2(S(=O)(=O)C3CCCC3)CCCC2)C(=O)O)cc1
IC50 (Integrin alpha-4/beta-1): 0.0012 µM
IC50 (Integrin alpha-4/beta-7): 0.147 µM

COc1cccc(OC)c1-c1ccc(C[C@H](NC(=O)C2(S(=O)(=O)c3ccccc3)CCCCC2)C(=O)O)cc1
IC50 (Integrin alpha-4/beta-1): 0.00019 µM
IC50 (Integrin alpha-4/beta-7): 0.013 µM

COc1ccccc1-c1ccc(C[C@H](NC(=O)C2(S(=O)(=O)c3ccccc3)CCOC2)C(=O)O)cc1 (stereo not given in full)
IC50 (Integrin alpha-4/beta-1): 0.00077 µM
IC50 (Integrin alpha-4/beta-7): 0.045 µM

COc1ccccc1-c1ccc(C[C@H](NC(=O)C2(S(=O)(=O)c3ccccc3)CCN(C)CC2)C(=O)O)cc1
IC50 (Integrin alpha-4/beta-1): 0.003 µM
IC50 (Integrin alpha-4/beta-7): 2 µM

Cc1ccc(S(=O)(=O)C2(C(=O)N[C@@H](Cc3ccc(-c4ccccc4)cc3)C(=O)O)CCCCC2)cc1
IC50 (Integrin alpha-4/beta-1): 0.053 µM
inhibition [1]: 0%

CCCCCCCCS(=O)(=O)C1(C(=O)N[C@@H](Cc2ccc(-c3ccccc3)cc2)C(=O)O)CCCC1
IC50 (Integrin alpha-4/beta-1): 0.15 µM
